Data published in publication PMC4865847, “Putative histidine kinase inhibitors with antibacterial effect against multi-drug resistant clinical isolates identified by in vitro and in silico screens” (Scientific Reports, 2016).
In brackets after ≈: the same amount, converted by molar mass. Where two headings read alike, the source gives them in different places.

Assays:
[1] = biological target: T1, S. pneumoniae WalK (Streptococcus pneumoniae, UniProt Q8DPL8); assay: In vitro autophosphorylation kinase assay with γ-32P-ATP, WalK; format: biochemical; settings: autophosphorylation, one time point (30 sec), 10% DMSO
T1 construct: WalK (amino acids from 208 to 449); N-terminal His6-3C site of vector pOPINF (own knowledge of the vector); made in house; host or cells: E. coli RIL
Method: (§1) To evaluate the inhibitory capacity of selected hits from DSF, SBVS and LBSS in vitro autophosphorylation kinase assays with γ-^32P-ATP were performed as previously described. Ligands were dissolved in 100% DMSO. […] Controls lacking ligands contained an equal concentration of DMSO. Inhibition of autophosphorylation was determined by incubating 0.12 mg/ml (≈4 μM) HK and up to 20 mM fragment in kinase buffer (50 mM Tris HCl, pH 8.5, 50 mM KCl, 5 mM MgCl2, 0.5 mM EDTA and 0.1 mM DTT). Autophosporylation reactions were initiated by addition of 0.1 μCi/μl γ-^32P-ATP containing from 0.03 to 0.06 μM ATP (final concentrations). Autophosphorylation was quenched with 2xSDS-PAGE sample buffer supplemented with 50 mM EDTA. […] After electrophoresis, the bottoms of the gels were removed to lower the background from the unincorporated radiolabeled ATP. Gels were dried without staining on a Bio-Rad Gel Air drying system and the phosphorylated protein was quantified by phosphor-imaging. Prism GraphPad was used for curve fitting and statistical analysis.

[2] = test system: Staphylococcus aureus; assay: Antibacterial susceptibility testing (MIC/MBC), S. aureus; format: cell-based; settings: Staphylococcus aureus
Method: (§2) Minimal inhibitory concentrations (MICs) were determined following a standard double-dilution method. […] For S. pneumoniae MICs were determined by adapting the standard double-dilution method to anaerobic conditions and of this microorganism (use of Todd Hewitt Yeast extract with 200 U/mL of catalase and continuous monitoring of growth).

[3] = test system: Escherichia coli; assay: Antibacterial susceptibility testing (MIC/MBC), E. coli; format: cell-based; settings: Escherichia coli; for MIC: read-out: MIC E. coli CFT 073
Method: as §2

[4] = biological target: T2, E. coli PhoR (PhoR^E) (Escherichia coli, UniProt P08400); assay: In vitro autophosphorylation kinase assay with γ-32P-ATP, PhoR^E; format: biochemical; settings: for IC50: autophosphorylation, one time point (30 sec), 10% DMSO; for inhibition at 2000 µM: 2 mM, 30 sec, compared to negative control
T2 construct: The catalytic portion (DHp and CA domain) of E. coli PhoR (PhoR^E); made in house; host or cells: E. coli RIL
Method: as §1

[5] = test system: Staphylococcus epidermidis; assay: Antibacterial susceptibility testing (MIC/MBC), S. epidermidis; format: cell-based; settings: Staphylococcus epidermidis
Method: as §2

[6] = biological target: S. aureus PhoR (PhoR^S) (Staphylococcus aureus, UniProt Q2FXN7); assay: In vitro autophosphorylation kinase assay with γ-32P-ATP, PhoR^S; format: biochemical; settings: for IC50: autophosphorylation, one time point (30 sec), 10% DMSO; for inhibition at 2000 µM: read-out: inhibition of PhoR^S autophosphorylation
Method: To evaluate the inhibitory capacity of selected hits from DSF, SBVS and LBSS in vitro autophosphorylation kinase assays with γ-^32P-ATP were performed as previously described. Ligands were dissolved in 100% DMSO. […] Controls lacking ligands contained an equal concentration of DMSO. Inhibition of autophosphorylation was determined by incubating 0.12 mg/ml (≈4 μM) HK and up to 20 mM fragment in kinase buffer (50 mM Tris HCl, pH 8.5, 50 mM KCl, 5 mM MgCl2, 0.5 mM EDTA and 0.1 mM DTT). Autophosporylation reactions were initiated by addition of 0.1 μCi/μl γ-^32P-ATP containing from 0.03 to 0.06 μM ATP (final concentrations). Autophosphorylation was quenched with 2xSDS-PAGE sample buffer supplemented with 50 mM EDTA. Samples were applied without heating to 15% (w/v) Tris-glycine SDS-polyacrylamide gels. After electrophoresis, the bottoms of the gels were removed to lower the background from the unincorporated radiolabeled ATP. Gels were dried without staining on a Bio-Rad Gel Air drying system and the phosphorylated protein was quantified by phosphor-imaging. Prism GraphPad was used for curve fitting and statistical analysis.

[7] = DSM20231, strain DSM 20231, read-out: MIC S. aureus DSM 20231
[8] = DSM20044, strain DSM 20044, read-out: MIC S. epidermidis DSM 20044

T1 sequence (Q8DPL8 208-449): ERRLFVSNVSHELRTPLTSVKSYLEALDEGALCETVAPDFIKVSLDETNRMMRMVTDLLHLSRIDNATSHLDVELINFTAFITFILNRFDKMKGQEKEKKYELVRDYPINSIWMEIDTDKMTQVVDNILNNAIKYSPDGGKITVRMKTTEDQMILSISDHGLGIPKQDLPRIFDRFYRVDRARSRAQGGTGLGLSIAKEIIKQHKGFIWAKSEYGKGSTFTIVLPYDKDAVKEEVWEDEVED
S. aureus PhoR (PhoR^S), sequence (Q2FXN7 entry or part of it): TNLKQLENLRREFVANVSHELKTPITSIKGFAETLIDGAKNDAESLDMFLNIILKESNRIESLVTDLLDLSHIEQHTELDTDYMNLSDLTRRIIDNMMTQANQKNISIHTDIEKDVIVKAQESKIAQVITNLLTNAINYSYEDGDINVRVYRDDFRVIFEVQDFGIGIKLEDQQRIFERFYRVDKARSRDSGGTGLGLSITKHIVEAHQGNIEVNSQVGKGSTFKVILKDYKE
T2 sequence (P08400 210-425): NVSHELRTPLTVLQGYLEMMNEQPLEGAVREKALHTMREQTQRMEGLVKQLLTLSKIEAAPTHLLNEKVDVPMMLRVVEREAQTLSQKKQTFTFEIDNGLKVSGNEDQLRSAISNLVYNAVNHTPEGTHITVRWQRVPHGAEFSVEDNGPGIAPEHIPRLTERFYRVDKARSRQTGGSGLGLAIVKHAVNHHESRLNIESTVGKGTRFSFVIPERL

SMILES | MIC [2, 7] [µg/mL] | MIC ([3]; strain CFT 073) [µg/mL] | MIC [5, 8] [µg/mL] | IC50 ([4]; IC50 PhoR^E) [µM] | IC50 ([6]; IC50 PhoR^S) [µM] | further results
Nc1nc(-c2ccc(O)cc2)cs1 [F1.1] |  |  |  |  |  | IC50 ([1]; read-out: IC50 WalK): > 2000 µM; MBC ([2]; DSM20231, read-out: MBC S. aureus DSM 20231): > 500 µg/mL; MBC ([3]; read-out: MBC E. coli CFT 073): > 500 µg/mL; IC50 ([4]; read-out: IC50 PhoR^E): > 2000 µM
Nc1nc(-c2ccc(Cl)cc2)cs1 [F1.2] | > 500 | > 500 | > 500 | > 2000 |  | IC50 ([1]; IC50 WalK): > 2000 µM
Cc1ccc(-c2csc(N)n2)cc1 [F1.3] | > 500 | > 500 | 500 (≈ 2630 µM) | > 2000 |  | IC50 ([1]; IC50 WalK): > 2000 µM; MBC ([5]; DSM20044, strain DSM 20044): 500 µg/mL (≈ 2630 µM)
Nc1ncc(-c2ccc(Br)cc2)s1 [F1.4] | > 500 | > 500 | > 500 | > 2000 |  | IC50 ([1]; IC50 WalK): > 2000 µM
Nc1nnc(-c2ccc(Br)cc2)o1 [F1.5] | > 500 | > 500 | > 500 | > 2000 |  | IC50 ([1]; IC50 WalK): > 2000 µM
CCN(Cc1ccc(C(=O)OC)cc1)c1cccc(NC(C)=O)c1 [S1.1] | > 500 | > 500 | > 500 | > 2000 | > 2000 | 
CC(=O)Nc1ccc(-c2ccc(F)cc2)cc1 [S1.2] | > 500 | > 500 | > 500 | < 2000 |  | IC50 ([6]; read-out: IC50 PhoR^S): < 2000 µM; inhibition at 2000 µM [6]: > 75%; inhibition at 2000 µM [4]: > 75%
CC(=O)Nc1ccc(NC(=O)c2cccc(F)c2)cc1 [S1.3] | > 500 | > 500 | > 500 | > 2000 | > 2000 | 
CC(=O)Nc1cccc(Cc2cccc(NC(C)=O)c2)c1 [S1.4] | > 500 | > 500 | > 500 | > 2000 | > 2000 | 
CC(=O)Nc1ccc[n+](CC(=O)c2ccc(F)cc2)c1 [S1.5] | > 500 | > 500 | > 500 | > 2000 | > 2000 | 
CC(=O)Nc1ccc(C(O)c2ccc(NC(C)=O)cc2)cc1 [S1.6] | > 500 | > 500 | > 500 | > 2000 | > 2000 | 
CC(=O)Nc1cccc(OCc2ccc([N+](=O)[O-])cc2)c1 [S1.8] | > 500 | > 500 | > 500 | > 2000 | > 2000 | 
CC(=O)Nc1cccc(S(=O)(=O)c2cccc(NC(C)=O)c2)c1 [S1.9] | > 500 | > 500 | > 500 | > 2000 | > 2000 | 
CC(=O)Nc1ccc2c(c1)C(=Nc1ccc(F)cc1)c1ccccc1-2 [S1.10] | > 500 | > 500 | > 500 | > 2000 | > 2000 | 
CC(=O)Nc1cccc(C=Cc2ccc([N+](=O)[O-])cc2)c1 [S1.11] | > 500 | > 500 | > 500 | < 2000 |  | IC50 ([6]; read-out: IC50 PhoR^S): < 2000 µM; inhibition at 2000 µM [6]: > 75%; inhibition at 2000 µM [4]: > 75%
CC(=O)Nc1ccc(C(=O)C(O)c2ccc(NC(C)=O)cc2)cc1 (stereo not shown) [S1.12] | > 500 | > 500 | > 500 | > 2000 | > 2000 | 
CC(C)(C)c1ccc(NS(=O)(=O)c2ccc(N)cc2)cc1 [S1.15] | > 500 | > 500 | > 500 | > 2000 |  | IC50 ([6]; read-out: IC50 PhoR^S): < 2000 µM; inhibition at 2000 µM [6]: > 75%; inhibition at 2000 µM [4]: > 40%
CC(=O)Nc1cccc(OCOc2ccc([N+](=O)[O-])cc2)c1 [S1.16] | > 500 | > 500 | > 500 | > 2000 | > 2000 | 
CC(=O)Nc1cccc(OCc2cccc([N+](=O)[O-])c2)c1 [S1.17] | > 500 | > 500 | > 500 | > 2000 | > 2000 | 
COc1cc(NCc2ccccc2)ccc1NC(C)=O [S1.18] | > 500 | > 500 | > 500 | > 2000 | > 2000 | 
CC(=O)NC(Cc1ccccc1)C(=O)Nc1cccc(C)c1 (stereo not shown) [S1.19] | > 500 | > 500 | > 500 | > 2000 | > 2000 | 
CC(=O)Nc1ccc2c(c1)Cc1cc(Br)ccc1-2 [S1.20] |  |  |  |  | > 2000 | MIC ([2]; DSM20231, read-out: MIC S. aureus DSM 20231): > 500 µg/mL; MIC [3]: > 500 µg/mL; MIC ([5]; DSM20044, read-out: MIC S. epidermidis DSM 20044): > 500 µg/mL; IC50 ([4]; read-out: IC50 PhoR^E): > 2000 µM
O=C(NCc1cccc(Cl)c1)Nc1ccccc1 [S1.22] | > 500 | > 500 | > 500 | > 2000 | > 2000 | 
CCC(c1cccc(Br)c1)C(C(C)=O)c1ccc(OC)cc1 (stereo not shown) [S1.23] | > 500 | > 500 | > 500 | > 2000 | > 2000 | 
CCn1c2ccccc2c2cc(NC(C)=O)ccc21 [S1.24] | > 500 | > 500 | > 500 | > 2000 | > 2000 | 
CC(=O)c1cccc(NC(=O)N(C)Cc2ccccc2)c1 [S1.25] | > 500 | > 500 | > 500 | > 2000 | > 2000 | 
